Measurements taken from patent US9200309B2, “Method for screening for S1P lyase inhibitors using cultured cells” (Daiichi Sankyo Company, Limited, priority 2010, dated 2015).
Read-outs that look alike come from different tables or passages of the source.

Assays:
Format in all cases: cell-based
SPL [1] = biological target: T1, SPL (Mus musculus, UniProt Q8R0X7); assay: Measurement of intracellular S1P by LC-MS in IT-79MTNC3 cells
T1 construct: IT-79MTNC3 cells which are a mouse thymic epithelial cell line can be appropriately selected using the expression of an SPL protein as an index; host or cells: IT-79MTNC3 (mouse thymic epithelial cell line)
T1 sequence (Q8R0X7 1-568): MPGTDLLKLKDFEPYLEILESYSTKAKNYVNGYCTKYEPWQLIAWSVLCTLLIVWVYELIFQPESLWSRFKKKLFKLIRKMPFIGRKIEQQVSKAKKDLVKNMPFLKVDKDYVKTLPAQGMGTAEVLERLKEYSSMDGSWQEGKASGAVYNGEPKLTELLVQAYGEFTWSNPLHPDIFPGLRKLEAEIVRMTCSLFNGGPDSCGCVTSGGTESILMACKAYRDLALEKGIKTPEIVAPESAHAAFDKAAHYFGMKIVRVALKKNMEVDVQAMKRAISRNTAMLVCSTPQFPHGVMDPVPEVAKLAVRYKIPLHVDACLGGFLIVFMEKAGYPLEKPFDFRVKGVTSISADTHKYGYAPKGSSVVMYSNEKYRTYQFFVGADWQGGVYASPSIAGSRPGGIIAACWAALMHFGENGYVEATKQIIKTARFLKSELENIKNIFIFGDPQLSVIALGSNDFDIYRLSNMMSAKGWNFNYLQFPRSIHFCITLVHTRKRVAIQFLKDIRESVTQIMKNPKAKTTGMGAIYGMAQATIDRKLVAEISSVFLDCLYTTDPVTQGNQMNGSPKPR
Experimental: In order to evaluate the activity of a test compound for accumulating S1P, IT-79MTNC3 cells were suspended in DMEM-10% FBS containing 25 μM fumonisin B1, and seeded in a 24-well plate for cell culture at 5×10^4 cells/well, and then cultured at 37° C. in the presence of 5% CO2 for a whole day and night. On the next day, the culture supernatant was first removed, and then, 450 μL of DMEM-0.1% BSA (or VB6-free DMEM-0.1% BSA) containing a serially diluted test compound was added thereto, and the cells were cultured at 37° C. in the presence of 5% CO2 for 4.5 hours. Thereafter, 50 μL of DMEM-0.1% BSA (or VB6-free DMEM-0.1% BSA) containing 10 μM Sph (Enzo Life Sciences) was added thereto, and the cells were cultured at 37° C. in the presence of 5% CO2 for 30 minutes. After the culture supernatant was removed, the cells were washed with PBS and collected. Then, 150 μL of a mixed solution of acetonitrile and 1 M hydrochloric acid (acetonitrile:hydrochloric acid=4:1) was added to the cells, and the resulting mixture was subjected to an ultrasonic treatment using a sonicator. The amount of S1P was measured by LC-MS by Mitsubishi Chemical Medience Corporation. In the case of using VB6-free DMEM, before the culture medium containing the test compound was added, washing was carried out twice with 600 μL of VB6-free DMEM-0.1% BSA, thereby preventing the carryover of the vitamin B6 group contained in DMEM used when seeding.

SPL [2] = biological target: T1, SPL; assay: SPA using known SPL inhibitor: accumulation of 3H-dhS1P in IT-79MTNC3 cells; conditions: for EC50: read-out: EC50, activity of inhibiting the SPL activity
Experimental: A mouse thymic epithelial cell line (IT-79MTNC3 cells, The Cell Bank Division of Japan Health Sciences Foundation) was cultured using Dulbecco's Modified Eagle Medium (DMEM, Invitrogen) containing 10% fetal bovine serum (FBS) (DMEM-10% FBS) at 37° C. in the presence of 5% CO2. When the cells were used for transfection or assay, the cells were detached with 0.05% trypsin-EDTA (Invitrogen), followed by centrifugation, thereby collecting the cells. When the cells were treated with a compound or used for incorporating ^3H-dhSph, DMEM containing 0.1% bovine serum albumin (BSA, Sigma) (DMEM-0.1% BSA) or vitamin B6 group-depleted Dulbecco's Modified Eagle Medium (VB6-free DMEM, Cell Science & Technology Institute, Inc.) containing 0.1% BSA (VB6-free DMEM-0.1% BSA) was used.
In order to evaluate the activity of a test compound for accumulating ^3H-dhS1P, IT-79MTNC3 cells were suspended in DMEM-10% FBS containing 25 μM fumonisin B1, and seeded in a 96-well plate for cell culture at 1×10^4 cells/well, and then cultured at 37° C. in the presence of 5% CO2 for a whole day and night. On the next day, the culture supernatant was first removed, and then, 40 μL of DMEM-0.1% BSA (or VB6-free DMEM-0.1% BSA) containing a serially diluted test compound was added thereto, and the cells were cultured at 37° C. in the presence of 5% CO2 for 4.5 hours. Thereafter, 10 μL of DMEM-0.1% BSA (or VB6-free DMEM-0.1% BSA) containing 83 nM ^3H-dhSph and 5 μM dhSph was added thereto, and the cells were cultured at 37° C. in the presence of 5% CO2 for 30 minutes. After the culture supernatant was removed, 70 μL of a cell lysis buffer was added thereto, and the resulting mixture was left at room temperature for 2 hours. A 50 μL portion of the resulting cell lysate was mixed with SPA beads (obtained by being diluted to 8 times such that glycerol was contained at 50% in the final concentration), which were previously dispensed into a white 96-well plate at 20 μL/well. Then, the plate was covered with a transparent plate seal and left overnight at room temperature under shading. On the next day, the radioactivity thereof was measured using a microplate scintillation counter. In the case of using VB6-free DMEM, before the culture medium containing the test compound was added, washing was carried out twice with 150 μL of VB6-free DMEM-0.1% BSA, thereby preventing the carryover of the vitamin B6 group contained in DMEM used when seeding.

SPL [3] = biological target: T1, SPL; assay: Measurement of SPL activity in lysate of cells treated with compound
Experimental: In order to prepare a lysate of cells treated with a test compound, IT-79MTNC3 cells were suspended in DMEM-10% FBS containing 25 μM fumonisin B1 and seeded in a 12-well plate for cell culture at 1×10^5 cells/well, and then cultured at 37° C. in the presence of 5% CO2 for a whole day and night. On the next day, the culture supernatant was first removed, and then, 500 μL of DMEM-0.1% BSA (or VB6-free DMEM-0.1% BSA) containing a serially diluted test compound was added thereto, and the cells were cultured at 37° C. in the presence of 5% CO2 for 4.5 hours. Thereafter, 55 μL of DMEM-0.1% BSA (or VB6-free DMEM-0.1% BSA) containing 10 μM dhSph was added thereto, and the cells were cultured at 37° C. in the presence of 5% CO2 for 30 minutes. After washing the IT-79MTNC3 cells with PBS, the cells were collected. Then, 150 μL of a homogenization buffer was added to the cells, and the resulting mixture was subjected to an ultrasonic treatment using a sonicator, followed by centrifugation at 4° C. for 3 minutes at 1,000 g, and the resulting supernatant was used as a cell lysate. The quantitative determination of protein by the Bradford method was carried out using a portion of the cell lysate. […]
In order to measure the SPL activity in the lysate prepared using the cells treated with the compound, the cell lysate was diluted to 1 mg protein/mL with a homogenization buffer, and the diluted solution was mixed with ^3H-dhS1P (3.4 nM) as a substrate and a reaction buffer (a 0.1 M potassium phosphate solution (pH-7.4), 25 mM NaF, 5 mM Na3VO4, 1 mM EDTA, 1 mM DTT, 0.1% Triton X-100, 2 μM cold dhS1P) to make the final volume 50 μL. […] A 30 μL portion of the resulting organic layer was taken and mixed with 5 mL of the liquid scintillator, and the radioactivity thereof was measured using a liquid scintillation counter. The obtained count was assumed to reflect the amount of degradation products by the SPL reaction, and the SPL activity of each sample was calculated as a ratio of that in the group without treatment with the compound.

[4] = in the presence of 100 nM pyridoxine

SMILES | activity on amount of intracellular S1P (SPL [1]; VB6-free DMEM, FIG. 5(2)) | activity on amount of intracellular S1P (SPL [1]; normal conditions (DMEM), FIG. 4(2)) | effective concentration in SPA as compared with normal DMEM (SPL [2]; VB6-free DMEM, FIG. 5(1)) | EC50 (SPL [2]; [4]) [µM] | EC50 (SPL [2]; in the presence of 1 μM pyridoxine) [µM] | EC50 (SPL [2]; normal DMEM (containing about 20 μM pyridoxine)) [µM] | response by SPA (accumulation of 3H-dhS1P) (SPL [2]; normal conditions (DMEM), FIG. 4(1)) | activity on SPL activity in the lysate (SPL [3]; VB6-free DMEM, FIG. 5(3)) | activity on SPL activity in the lysate (SPL [3]; normal conditions (DMEM), FIG. 4(3)) | activity in SPA (accumulation of 3H-dhS1P) (SPL [2]; VB6-free DMEM, FIG. 5(1)) | inhibitory activity against the SPL activity (SPL [2]; in the presence 1 μM pyridoxine) | inhibitory activity against the SPL activity (SPL [2]; normal DMEM)
Cc1ncc(CO)c(C)c1O [DOP, 4-deoxypyridoxine] | exhibited their activity in substantially the same concentration range | detected in substantially the same concentration range | significantly decreased | 0.027 | 1.6 | 46 | concentration-dependent response | exhibited their activity in substantially the same concentration range | detected in substantially the same concentration range |  |  | 
CC(=O)c1nc(C(O)C(O)C(O)CO)c[nH]1 (stereo not drawn) [THI, 2-acetyl-4-tetrahydroxybutylimidazole] | exhibited their activity in substantially the same concentration range |  |  | ~250 |  |  |  | exhibited their activity in substantially the same concentration range |  | concentration-dependent activity was detected | could not be observed | could not be observed
